The values below come from ChEMBL document CHEMBL1153415, “Evaluation of antioxidant properties of monoaromatic derivatives of pulvinic acids” (J Med Chem, 2009).

One data set has as its system CHO. The data set can be described thus: Cytotoxicity against CHO cells at 10 to 100 uM by MTT assay relative to control. The data set is classed as cell-based, Cricetulus griseus. Conditions: chinese hamster. (Formazan colour is commonly taken as a measure of viable cells.)
A short description of data set [1]: Antioxidant activity against […]/EDTA/H2O2-induced pEGFPLuc plasmid DNA degradation assessed as remaining supercoiled DNA form at 125 uM by gel-electrophoresis. The data set is classed as functional.
Data set [2] in a line: Antioxidant activity against Fe/EDTA/H2O2-induced thymidine degradation at 100 uM by thymidine protection assay. The data set is classed as functional.
Data set [3] is described as follows: Antioxidant activity against UV/H2O2-induced thymidine degradation at 100 uM by thymidine protection assay. The data set is classed as functional.
A short description of data set [4]: Antioxidant activity against superoxide radical assessed as trolox equivalents by luminol-enhanced chemiluminescence. The data set is classed as functional.
Data set [5] can be described thus: Antioxidant activity against UV/H2O2-induced thymidine degradation by thymidine protection assay. The data set is classed as functional.
Data set [6] can be described thus: Antioxidant activity against Fe/EDTA/H2O2-induced thymidine degradation by thymidine protection assay. The data set is classed as functional.

Molecules are shown by their SMILES. Activity calls are given as the source filed them. No cut-off for these calls is given here.

`COC(=O)/C(C)=C1/OC(=O)C(c2ccccc2)=C1O`: in the data set with CHO, the Activity entry is “Non-toxic”. For the same compound, the result in data set [1] was Active.
Consider `COC(=O)/C(C)=C1/OC(=O)C(c2ccc(C(C)C)cc2)=C1O`, for which the outcome in data set [2], in data set [1] and in data set [3] was Active.
For `COC(=O)/C(C)=C1/OC(=O)C(c2ccc(F)cc2)=C1O`, the result in data set [2], in data set [1] and in data set [3] was Active.
With `COC(=O)/C(=C1/OC(=O)C(C)=C1O)c1ccc(Br)cc1`, the Activity in data set [4] came to 87 µg.
Consider `COc1ccc(C2=C(O)/C(=C(/C)C(=O)NCCCN)OC2=O)cc1`, for which the Activity in data set [4] amounted to 81 µg; in data set [2], 37%; in data set [1] it was 40%; in data set [3] it was 30%.
`COc1ccc(C2=C(O)/C(=C(/C)C(=O)N3CCOCC3)OC2=O)cc1`: the Activity is 79 µg in data set [4], “Non-toxic” in the data set on CHO, 37% in data set [2] and 30% in data set [3]. For the same compound, in data set [1], the outcome was Active.
On to `COC(=O)/C(C)=C1/OC(=O)C(/C=C/c2ccccc2)=C1O`, for which the outcome in data set [2], in data set [1] and in data set [3] was Active.
For the compound `COc1ccc(/C(C(=O)OC(C)C)=C2\OC(=O)C(C)=C2O)cc1`, the Activity is 77 µg in data set [4] and “Non-toxic” in the data set on CHO.
What is called EC50 is the concentration giving half of the maximal effect. A higher EC50 goes with a less potent agent. In the case of `COC(=O)/C(C)=C1/OC(=O)C(c2ccc(OC)cc2)=C1O`, the Activity is 141 µg in data set [4] and 40% in data set [1]. For the same compound, the concentration giving a half-maximal response (EC50) in data set [5] is 130 µM; in data set [6], 196 µM.
As for `COc1ccc(C2=C(O)/C(=C(/C)C(C)(C)O)OC2=O)cc1`, the results for the EC50 in data set [5] and in data set [6] were 117 µM and 608 µM, respectively. In addition, the Activity entry with CHO is “Non-toxic”; in data set [1] it was 40%.
For the compound `COc1ccc(C2=C(O)/C(=C(/C)C(=O)OC(C)C)OC2=O)cc1`, the results for the Activity in data set [4], in data set [2] and in data set [3] were 105 µg, 37% and 27%, respectively. For the same compound, the result in data set [1] was Active.
For `COc1ccc(C2=C(O)/C(=C(/C)C(=O)N(C)OC)OC2=O)cc1`, the Activity came out at 37% in data set [2] and 30% in data set [3]. For the same compound, the result in data set [1] was Active.
As for `COC(=O)/C(=C1/OC(O)=C(c2ccc(OC)cc2)C1=O)c1ccc(OC)cc1`, the Activity in data set [4] is 54 µg; in the data set on CHO it was “Non-toxic”. The EC50 in data set [5] was found to be 90 µM; in data set [6], 109 µM. In data set [1], the result was Active.
For the compound `COC(=O)/C(=C1/OC(=O)C(C)=C1O)c1ccccc1`, the EC50 in data set [5] was 220 µM; in data set [6], 850 µM. In addition, in the data set with CHO, the Activity result was “Non-toxic”.
Regarding `CCCCNC(=O)/C(C)=C1/OC(=O)C(c2ccc(OC)cc2)=C1O`, the Activity in data set [4] is 86 µg; in the data set with CHO, “Non-toxic”; in data set [2], 37%; in data set [1], 40%; in data set [3], 30%. Moreover, the concentration for a half-maximal effect (EC50) in data set [5] was determined as 91 µM; in data set [6] it was 226 µM.
For the compound `COC(=O)/C(=C1/OC(=O)C(C)=C1O)c1ccc(OC)cc1`, the half-maximal effective concentration (EC50) worked out at 175 µM in data set [5] and 971 µM in data set [6].
On to `COC(=O)/C(C)=C1/OC(=O)C(c2ccc(Br)cc2)=C1O`, for which the results for the Activity (in data set [4]; in the data set on CHO) were 113 µg and “Non-toxic”, respectively. The result in data set [2], in data set [1] and in data set [3] was Active.
With `COC(=O)/C(=C1/OC(=O)C(c2ccccc2)=C1O)c1ccccc1`, the result in data set [2] and in data set [3] was Active.
